Experimental data: ChEMBL document CHEMBL1156829 (Proc Natl Acad Sci U S A, 2008)

Assays:
[1] = NOVARTIS: Cytotoxicity against human hepatocellular carcinoma cell line (Huh7); format: toxicity, cell-based, Huh-7; settings: Huh7 cells (hepatocellular carcinoma cell line)
Plasmodium falciparum [2] = experiment: NOVARTIS: Inhibition of Plasmodium falciparum W2 (drug-resistant) proliferation in erythrocyte-based infection assay; format: functional, organism-based; settings: Plasmodium falciparum, W2; read-out: EC50
Plasmodium falciparum [3] = experiment: NOVARTIS: Inhibition of Plasmodium falciparum 3D7 (drug-susceptible) proliferation in erythrocyte-based infection assay; format: functional, organism-based; settings: Plasmodium falciparum, 3D7

SMILES: CCN(Cc1ccccc1)c1ncnc2ccc(Br)cc12
- CC50 [1]: 95.3 µM
- EC50 (Plasmodium falciparum [2]): > 12500 nM
- EC50 (Plasmodium falciparum [3]): 7440 nM

SMILES: CCCn1c(SCC(=O)Nc2ccccc2Cl)nc2c1c(=O)n(C)c(=O)n2C
- CC50 [1]: > 10 µM
- EC50 (Plasmodium falciparum [2]): 1320 nM
- EC50 (Plasmodium falciparum [3]): > 1250 nM

SMILES: CC[n+]1c(C=Cc2ccc(C)cc2)ccc2ccccc21
- CC50 [1]: 20.9 µM
- EC50 (Plasmodium falciparum [2]): 2700 nM
- EC50 (Plasmodium falciparum [3]): 2990 nM

SMILES: COc1ccc(NC(=O)CCCCCn2c(SCC(=O)NCC3CCCO3)nc3ccsc3c2=O)cc1 (centres undefined)
- CC50 [1]: > 10 µM
- EC50 (Plasmodium falciparum [2]): > 1320 nM
- EC50 (Plasmodium falciparum [3]): > 725 nM

SMILES: Cc1ccc(OCCCCN2CCOCC2)c([N+](=O)[O-])c1
- CC50 [1]: > 10 µM
- EC50 (Plasmodium falciparum [2]): > 1290 nM
- EC50 (Plasmodium falciparum [3]): > 564 nM

SMILES: COc1ccc2nc(C)cc(Nc3ccc(Oc4ccc(Br)c5ccccc45)c(Cl)c3)c2c1
- CC50 [1]: 18.3 µM
- EC50 (Plasmodium falciparum [2]): 2340 nM
- EC50 (Plasmodium falciparum [3]): 1110 nM

SMILES: O=[N+]([O-])c1cccc(Cl)c1N1CCN(S(=O)(=O)Cc2ccccc2)CC1
- CC50 [1]: > 10 µM
- EC50 (Plasmodium falciparum [2]): 1300 nM
- EC50 (Plasmodium falciparum [3]): > 1160 nM

SMILES: CCOC(=O)c1cc(-c2ccc(Cl)cc2Cl)[nH]c1N1CCN(c2ccc(OC)cc2)CC1
- CC50 [1]: > 13.4 µM
- EC50 (Plasmodium falciparum [2]): > 1730 nM
- EC50 (Plasmodium falciparum [3]): 1370 nM

SMILES: c1cncc(-c2nc3cc(-c4ccc5[nH]c(-c6cccnc6)nc5c4)ccc3[nH]2)c1
- CC50 [1]: > 10 µM
- EC50 (Plasmodium falciparum [2]): 1290 nM
- EC50 (Plasmodium falciparum [3]): 1410 nM

SMILES: CC(C)CNc1nc(NCCCN(C)C)ncc1C(=O)NCc1ccccc1
- CC50 [1]: > 10 µM
- EC50 (Plasmodium falciparum [2]): > 1290 nM
- EC50 (Plasmodium falciparum [3]): 316 nM

SMILES: Cc1ccc(C2=NC(C(F)(F)F)(C(F)(F)F)N=C3C=CC(Cl)=CN32)cc1
- CC50 [1]: > 10 µM
- EC50 (Plasmodium falciparum [2]): > 1300 nM
- EC50 (Plasmodium falciparum [3]): > 1210 nM

SMILES: COc1ccccc1CNc1ncc(C(=O)NCc2ccccc2)c(NCCc2ccccc2)n1
- CC50 [1]: > 10 µM
- EC50 (Plasmodium falciparum [2]): > 1300 nM
- EC50 (Plasmodium falciparum [3]): 1280 nM

SMILES: CCCN1CCC(NC2CCCc3c2[nH]c2ccc([N+](=O)[O-])cc32)CC1 (centres undefined)
- CC50 [1]: 28 µM
- EC50 (Plasmodium falciparum [2]): 3630 nM
- EC50 (Plasmodium falciparum [3]): 1160 nM

SMILES: O=c1c2sccc2nc(SCc2cc(=O)n3ccccc3n2)n1Cc1ccccc1
- CC50 [1]: > 10 µM
- EC50 (Plasmodium falciparum [2]): 1280 nM
- EC50 (Plasmodium falciparum [3]): > 1250 nM

SMILES: CCC(=O)N1CCN(C(=O)c2ccc(C)cc2)C1
- CC50 [1]: > 10 µM
- EC50 (Plasmodium falciparum [2]): 1280 nM
- EC50 (Plasmodium falciparum [3]): > 1500 nM

SMILES: COC(=O)C1N(C(=O)OC)c2ccc([N+](=O)[O-])cc2S1(=O)=O (centres undefined)
- CC50 [1]: > 10 µM
- EC50 (Plasmodium falciparum [2]): > 1280 nM
- EC50 (Plasmodium falciparum [3]): 362 nM

SMILES: CCc1ccc2c(c1)C(c1ccncc1)=NNC(c1ccncc1)=N2
- CC50 [1]: > 10 µM
- EC50 (Plasmodium falciparum [2]): > 1300 nM
- EC50 (Plasmodium falciparum [3]): 887 nM

SMILES: COc1cccc(C(=O)N(CCCC(C)Nc2cc(OC)cc3cccnc23)Cc2ccc(OC)c(OC)c2)c1 (centres undefined)
- CC50 [1]: > 4.01 µM
- EC50 (Plasmodium falciparum [2]): 513 nM
- EC50 (Plasmodium falciparum [3]): 1480 nM

SMILES: O=C(NCc1ccccc1)c1cnc(NCCCn2ccnc2)nc1NC1CCCC1
- CC50 [1]: > 10 µM
- EC50 (Plasmodium falciparum [2]): 1320 nM
- EC50 (Plasmodium falciparum [3]): 624 nM

SMILES: O=C(Nc1cccc(-c2nc3ccccc3[nH]2)c1)c1ccccc1[N+](=O)[O-]
- CC50 [1]: > 6 µM
- EC50 (Plasmodium falciparum [2]): > 772 nM
- EC50 (Plasmodium falciparum [3]): > 1720 nM

SMILES: CCC(c1nc2ccccc2c(=O)n1-c1cccc(C)c1)N(CCc1ccccc1)C(=O)Nc1c(C(C)C)cccc1C(C)C (centres undefined)
- CC50 [1]: > 8.51 µM
- EC50 (Plasmodium falciparum [2]): 1100 nM
- EC50 (Plasmodium falciparum [3]): 1070 nM

SMILES: Oc1cccc(-c2cncc(-c3cccnc3)n2)c1
- CC50 [1]: > 10 µM
- EC50 (Plasmodium falciparum [2]): 1290 nM
- EC50 (Plasmodium falciparum [3]): 1300 nM

SMILES: Oc1ccc(-c2nc3ccccc3s2)cc1CN1CCCCC1
- CC50 [1]: > 6.13 µM
- EC50 (Plasmodium falciparum [2]): 786 nM
- EC50 (Plasmodium falciparum [3]): 1140 nM

SMILES: Cc1nc(N2CCCCC2)c2c(C)c(C(=O)N3CCN(c4ccccc4F)CC3)sc2n1
- CC50 [1]: > 10 µM
- EC50 (Plasmodium falciparum [2]): 1300 nM
- EC50 (Plasmodium falciparum [3]): > 1540 nM

SMILES: Oc1ccccc1-c1nc(-c2ccccc2)nc(-c2ccc(Br)cc2)n1
- CC50 [1]: > 10 µM
- EC50 (Plasmodium falciparum [2]): > 1280 nM
- EC50 (Plasmodium falciparum [3]): > 1160 nM

SMILES: COc1ccc(C2CC(c3ccccc3Cl)n3ncnc3N2C(=O)C2CC2)cc1 (centres undefined)
- CC50 [1]: > 10 µM
- EC50 (Plasmodium falciparum [2]): > 1280 nM
- EC50 (Plasmodium falciparum [3]): 1320 nM

SMILES: C/C(Cl)=C/Cc1c(C)nc2c(ccc3ccccc32)c1O
- CC50 [1]: > 10 µM
- EC50 (Plasmodium falciparum [2]): 1280 nM
- EC50 (Plasmodium falciparum [3]): 857 nM

SMILES: CCCN1CCC(N2C[C@@H](NC3CCCCCCC3)C[C@H]2C(=O)NCCc2ccc3c(c2)OCO3)CC1
- CC50 [1]: > 10 µM
- EC50 (Plasmodium falciparum [2]): > 1300 nM
- EC50 (Plasmodium falciparum [3]): > 1360 nM
